IC50 and Activity data for eight compounds are collected here from ChEMBL document CHEMBL1146495, “Iridoids as allelochemicals and DNA polymerase inhibitors” (J Nat Prod, 2004).

In assay [1] the target is DNA polymerase I, thermostable (Thermus aquaticus, UniProt P19821). The experiment in a line: Inhibition of Thermus aquaticus-DNA polymerase by PCR analysis.
Assay [2] concerns the target DNA polymerase I, thermostable (Thermus aquaticus) (UniProt P19821). Description: Inhibition of Thermus aquaticus-DNA polymerase at 500 uM by PCR analysis.
Assay [3] concerns Tribolium castaneum. The experiment in a line: Antifeedant activity against Tribolium castaneum assessed as feeding deterrence index at 200 ug/disk after 5 days by flour disk assay. The class given is functional, organism-based.
The test system of assay [4] is Tribolium castaneum. Description: Antifeedant activity against Tribolium castaneum assessed as efficiency of conversion of ingested food at 200 ug/disk after 5 days by flour disk assay. The class given is functional, Instar larval stage.
Assay [5] deals with Tribolium castaneum. The experiment in a line: Antifeedant activity against Tribolium castaneum assessed as relative consumption rate at 200 ug/disk after 5 days by flour disk assay. It counts as functional.
For assay [6], the system named is Tribolium castaneum. The experiment in a line: Antifeedant activity against Tribolium castaneum assessed as relative growth rate at 200 ug/disk after 5 days by flour disk assay. The class given is functional.
In assay [7] the test system is Tribolium castaneum. The experiment in a line: Insecticidal activity against Tribolium castaneum fifth instar larvae assessed as mortality at 60 ug/uL, treated topically. It counts as functional.
For assay [8], the system named is Tribolium castaneum. Description: Insecticidal activity against Tribolium castaneum fifth instar larvae assessed as pupal stage duration at 60 ug/uL, treated topically. The class given is functional.

Activity calls are given as the source filed them. The rule behind the calls is not given here.

Chain of DNA polymerase I, thermostable (Thermus aquaticus) (P19821 whole entry): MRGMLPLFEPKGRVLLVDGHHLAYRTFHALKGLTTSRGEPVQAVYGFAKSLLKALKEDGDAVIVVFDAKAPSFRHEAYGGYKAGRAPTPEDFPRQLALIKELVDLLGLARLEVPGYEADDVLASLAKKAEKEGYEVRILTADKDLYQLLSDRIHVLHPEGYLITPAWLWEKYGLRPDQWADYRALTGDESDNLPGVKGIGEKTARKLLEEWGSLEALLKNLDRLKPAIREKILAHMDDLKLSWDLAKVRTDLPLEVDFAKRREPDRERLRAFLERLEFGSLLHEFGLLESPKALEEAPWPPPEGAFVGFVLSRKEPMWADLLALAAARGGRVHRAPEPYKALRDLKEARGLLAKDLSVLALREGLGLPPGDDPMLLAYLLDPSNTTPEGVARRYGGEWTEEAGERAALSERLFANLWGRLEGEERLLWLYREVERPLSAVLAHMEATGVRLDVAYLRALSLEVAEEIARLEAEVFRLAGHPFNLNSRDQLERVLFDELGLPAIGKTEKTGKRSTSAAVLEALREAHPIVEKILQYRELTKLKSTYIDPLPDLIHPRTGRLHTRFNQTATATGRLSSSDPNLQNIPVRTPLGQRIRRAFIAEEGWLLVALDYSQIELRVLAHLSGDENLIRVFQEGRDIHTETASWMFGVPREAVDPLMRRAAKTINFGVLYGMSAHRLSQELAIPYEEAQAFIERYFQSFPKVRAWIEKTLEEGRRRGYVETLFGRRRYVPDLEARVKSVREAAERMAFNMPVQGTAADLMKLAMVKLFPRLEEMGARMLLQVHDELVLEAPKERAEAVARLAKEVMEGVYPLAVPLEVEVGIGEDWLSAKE
Chain of DNA polymerase I, thermostable (P19821 whole entry): as above

In the case of `C[C@]1(O)C[C@@H](O)[C@]2(O)C=CO[C@@H](O[C@@H]3O[C@H](CO)[C@@H](O)[C@H](O)[C@H]3O)[C@@H]21` [HARPAGIDE], in assay [1], the IC50 stood at 417 µM.
As to `CCCCCCCC/C=C\CCCCCCCCOC[C@H]1O[C@@H](O[C@@H]2OC=C[C@H]3[C@H](O)[C@@H]4O[C@]4(COCCCCCCCC/C=C\CCCCCCCC)[C@@H]23)[C@H](O)[C@@H](O)[C@@H]1O`, the outcome in assay [2] was inactive.
Regarding `OC[C@H]1O[C@@H](O[C@@H]2OC=C[C@H]3[C@H](O)[C@@H]4O[C@]4(CO)[C@@H]23)[C@H](O)[C@@H](O)[C@@H]1O` [CATALPOL], in the assay with Tribolium castaneum [3], the outcome was inactive. Moreover, the Activity with Tribolium castaneum [4] was -66.101%; with Tribolium castaneum [5], 0.017 mg/mg/day; in the assay with Tribolium castaneum [6], -0.01 mg/mg/day; in the assay on Tribolium castaneum [7] it was 73.3%; with Tribolium castaneum [8] it was 8.2 days. Further, in assay [1], the IC50 came out at 47.8 µM.
Consider `CC(=O)O[C@@]1(C)C[C@@H](O)[C@]2(O)C=CO[C@@H](O[C@@H]3O[C@H](CO)[C@@H](O)[C@H](O)[C@H]3O)[C@@H]21`, for which, in the assay on Tribolium castaneum [3], the result was inactive. Also, the Activity with Tribolium castaneum [4] was -8.908%; in the assay on Tribolium castaneum [5], 0.058 mg/mg/day; in the assay with Tribolium castaneum [6] it was -0.004 mg/mg/day; in the assay with Tribolium castaneum [7], 56.6%; in the assay on Tribolium castaneum [8] it was 11.3 days. Also, the IC50 in assay [1] came to 214 µM.
For `CC(=O)O[C@@H]1[C@@H](OC(C)=O)[C@H](O[C@@H]2OC=C[C@H]3[C@H](OC(C)=O)[C@@H]4O[C@]4(CO[Si](c4ccccc4)(c4ccccc4)C(C)(C)C)[C@@H]23)O[C@H](CO[Si](c2ccccc2)(c2ccccc2)C(C)(C)C)[C@H]1OC(C)=O`, the result in assay [2] was inactive.
In the case of `C[C@]1(O)C[C@@H](O)[C@]2(O)C=CO[C@@H](O[C@H]3O[C@H](CO)[C@@H](O)[C@H](O)[C@H]3O)[C@@H]21` [HARPAGIDE], in the assay on Tribolium castaneum [3], the result was inactive. Moreover, the Activity in the assay on Tribolium castaneum [4] is -30.729%; in the assay with Tribolium castaneum [5], 0.019 mg/mg/day; in the assay with Tribolium castaneum [6] it was -0.003 mg/mg/day; with Tribolium castaneum [7], 60%; with Tribolium castaneum [8] it was 12.1 days.
Consider `CC(=O)OC[C@H]1O[C@@H](O[C@@H]2OC=C[C@H]3[C@H](OC(C)=O)[C@@H]4O[C@]4(COC(C)=O)[C@@H]23)[C@H](OC(C)=O)[C@@H](OC(C)=O)[C@@H]1OC(C)=O`, for which the result in assay [2] was inactive.
In the case of `OC[C@H]1O[C@@H](O[C@@H]2OCC[C@H]3[C@H](O)[C@@H]4O[C@]4(CO)[C@@H]23)[C@H](O)[C@@H](O)[C@@H]1O`, the outcome in assay [2] was inactive.
